What was measured:
[1] = biological target: T1, human ETA receptors (Homo sapiens, UniProt P25101); assay: [125I]ET-1 binding to recombinant human ETA receptors (Ltk- cell membranes); conditions: for IC50: Table 1 comparison with known endothelin antagonists, read-out: Receptor Inhibition, Human ETA; for ETB/ETA selectivity ratio: human ETB / human ETA receptor inhibition
T1 construct: expressed in transfected cells; host or cells: Ltk- cells (mouse fibroblast, thymidine kinase deficient)
T1 sequence (P25101 21-427): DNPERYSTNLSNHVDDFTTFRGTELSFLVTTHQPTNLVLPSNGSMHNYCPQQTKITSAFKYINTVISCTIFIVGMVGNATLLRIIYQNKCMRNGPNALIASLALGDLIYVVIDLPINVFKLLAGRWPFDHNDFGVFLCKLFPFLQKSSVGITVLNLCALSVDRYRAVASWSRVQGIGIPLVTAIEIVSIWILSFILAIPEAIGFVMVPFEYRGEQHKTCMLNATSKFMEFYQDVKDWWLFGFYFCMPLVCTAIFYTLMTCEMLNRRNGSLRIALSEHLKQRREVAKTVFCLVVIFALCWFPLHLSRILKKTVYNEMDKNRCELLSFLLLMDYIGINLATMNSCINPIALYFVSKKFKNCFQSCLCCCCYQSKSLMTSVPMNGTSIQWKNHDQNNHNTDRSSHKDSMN

[2] = biological target: T2, human ETB receptors (Homo sapiens, UniProt P24530); assay: [125I]ET-3 binding to recombinant human ETB receptors (CHO cell membranes); conditions: Table 1 comparison with known endothelin antagonists; read-out: Receptor Inhibition, Human ETB
T2 construct: expressed in transfected cells; host or cells: CHO cells
T2 sequence (P24530 27-442): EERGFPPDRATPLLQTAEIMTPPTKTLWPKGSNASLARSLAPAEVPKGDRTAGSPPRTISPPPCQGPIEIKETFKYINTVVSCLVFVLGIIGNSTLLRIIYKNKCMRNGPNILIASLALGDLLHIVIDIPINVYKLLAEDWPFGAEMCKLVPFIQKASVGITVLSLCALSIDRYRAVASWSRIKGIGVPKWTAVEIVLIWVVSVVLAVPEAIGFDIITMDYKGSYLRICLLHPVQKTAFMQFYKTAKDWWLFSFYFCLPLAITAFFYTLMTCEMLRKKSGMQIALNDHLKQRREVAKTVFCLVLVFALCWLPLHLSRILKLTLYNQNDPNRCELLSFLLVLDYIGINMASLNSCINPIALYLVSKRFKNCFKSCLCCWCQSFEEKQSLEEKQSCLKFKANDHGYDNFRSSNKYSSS

[3] = clinical; conditions: human, plasma, oral, 2 mg

Compound: COc1cc(OC)nc(O[C@H](C(=O)O)C(OC)(c2ccccc2)c2ccccc2)n1 [Darusentan]
- IC50 [1]: 1.4 nM
- ETB/ETA selectivity ratio [1]: 131
- IC50 [2]: 184 nM

Compound: CCCOc1ccc2c(c1)[C@@H](c1ccc(OC)cc1OCCO)[C@H](C(=O)O)[C@H]2c1ccc2c(c1)OCO2 [Enrasentan]
- IC50 [1]: 0.1 nM
- ETB/ETA selectivity ratio [1]: 1110
- IC50 [2]: 111 nM

Compound: Cc1ncc2n1-c1ccc(Cl)cc1C(c1ccccc1F)=NC2 [midazolam]
- AUC(0-t) [3]: 15.2 ng·h/mL
- Cmax [3]: 7.65 ng/mL

From patent US20020115661A1, “Method for treating chronic obstructive pulmonary disease” (priority 2000, published 2002)
